Assay results published in article PMC7433010, “Exploration of multi‐target effects of 3‐benzoyl‐5‐hydroxychromen‐2‐one in Alzheimer’s disease cell and mouse models” (Aging Cell, 2020).

Columns and labels:
[1] = MTT cytotoxicity in uninduced ∆K280 TauRD‐DsRed 293 cells; format: cell-based; conditions: human
Method: (§1) Licochalcone A and five derivative LM compounds were tested (Figure 1a). All six compounds were soluble up to 100 μM in a cell culture medium (Figure S1a). Based on molecular weight (MW), hydrogen bond donors (HBD), hydrogen bond acceptors (HBA), and calculated octanol/water partition coefficient (cLogP), all six compounds meet Lipinski's criteria in predicting oral bioavailability (Lipinski, Lombardo, Dominy, & Feeney, 1997) (Figure S1b). […] To choose the optimal treatment dose used for the best efficacy of the candidate compounds, a specific type of biphasic dose response of a compound called hormesis should take into consideration. Evidence has shown that a wide range of pharmaceutical products display a hermetic dose‐response feature, characterized by a low‐dose stimulation and a high‐dose inhibition (Calabrese et al., 2018; Concetta Scuto et al., 2019; Pilipenko et al., 2019). Therefore, we tested the compounds at a range of doses to find the optimal dose for the best therapeutic effect and the least cytotoxicity. Firstly, MTT assay was performed using uninduced ∆K280 TauRD‐DsRed 293 and retinoic acid‐differentiated SH‐SY5Y cells following treatment with the test compounds (0.1–10 μM) for 3 (for 293 cells) or 7 (for SH‐SY5Ycells) days. […] Congo red is an amyloidogenic dye known to reduce Aβ neurotoxicity (Lorenzo & Yankner, 1994).
(§2) Licochalcone A was purchased from Sigma-Aldrich, St. Louis, MO, USA. In-house LM compounds were synthesized and characterized by NMR spectrum as described (Lee et al., 2012, 2015, 2018). Tet-On ∆K280 TauRD-DsRed 293 and SH-SY5Y cells (Chang et al., 2016) were cultured in Dulbecco’s modified Eagles medium (DMEM) (293) or DMEM-F12 (SH-SY5Y) containing 10% fetal bovine serum (Invitrogen, Carlsbad, CA, USA), 5 μg/ml of blasticidin, and 100 μg/ml of hygromycin (InvivoGen, San Diego, CA, USA). Compound cytotoxicity was assessed by colorimetric assay for measuring cell metabolic activity. Briefly, 5 × 10^4 cells were plated (48-well plates), grown for 20 h, and treated with the test compounds ([…]). […], 20 µl of 3-(4,5-dimethylthiazol-2-yl)-2,5-diphenyltetrazolium bromide (MTT, 5 mg/ml in PBS; Sigma-Aldrich) was added to the cells and incubated at 37°C for 3 h. Then 200 µl of lysis buffer (10% Triton X-100, 0.1 N HCl, 18% isopropanol) was added and the absorbance of the insoluble product at OD 570 nm was measured by a microplate reader (FLx800 fluorescence microplate reader, Bio-Tek, Winooski, VT, USA). The half-maximal inhibitory concentration (IC50) was calculated using the interpolation method.
(§3) Figure S1. Test compounds. (a) Solubility (in cell culture medium) of test compounds. (b) Molecular weight (MW), hydrogen bond donor (HBD), hydrogen bond acceptor (HBA), calculated octanol-water partition coefficient (cLogP), polar surface area (PSA), and predicted blood-brain barrier (BBB) score of test compounds. (c) Cytotoxicity of test compounds against ∆K280 TauRD-DsRed 293 and SH-SY5Y cells using the MTT assay. Uninduced 293 cells were plated on day 1 and treated with 0.1–10 μM test compounds on day 2. Cell viability was measured on day 5 (n = 3). In addition, uninduced SH-SY5Y cells were seeded with all trans retinoic acid (RA; 10 µM) on day 1 and treated with 0.1–10 μM test compounds on day 2. Cell viability was measured on day 9 (n = 3). To normalize, the relative viability in compound untreated cells was set at 100%. IC50 values are listed.

[2] = MTT cytotoxicity in uninduced retinoic acid‐differentiated SH‐SY5Y cells; format: cell-based; conditions: human
Method: as §1, §2, §3

[3] = Cytotoxicity by survived cell number in 293 cells expressing ∆K280 TauRD‐DsRed; format: cell-based; conditions: human; 293 cells expressing ∆K280 TauRD‐DsRed for 3 days
Source text: In ∆K280 TauRD‐DsRed 293 cells, a proaggregant (ΔK280) Tau repeat domain (TauRD) containing residues 244–372 of the full‐length 4R2N Tau441 was fused in‐frame with DsRed fluorophore. Compared to the wild‐type TauRD, the poorly folded ΔK280 TauRD formed aggregates, which adversely affected the folding of fused DsRed and thus decreased DsRed fluorescence, as also evidenced by increase in thioflavin S fluorescence emission (Chang et al., 2017). Thioflavin S is a reporter dye for studies of Tau toxicity and pharmacologic prevention in cell model of tauopathy (Pickhardt et al., 2017). It binds to amyloid fibrils but not monomers and gives a distinct increase in fluorescence emission. Inhibition of Tau aggregation may improve DsRed misfolding, leading to increased fluorescence in ΔK280 TauRD‐DsRed‐expressing cells. Utilizing the established Tet‐on ΔK280 TauRD‐DsRed 293 cells (Chang et al., 2016), licochalcone A and LM compounds were tested for effects of reducing Tau misfolding and anti‐oxidation (Figure S2a). Congo red was included for comparison. […] In the following experiments, DsRed fluorescence was measured in wells containing at least 80% viable cells. […] Due to the features of their effectiveness and less cytotoxicity, licochalcone A (1 μM) and LM‐031 (1 μM) were chosen as the candidate compounds for the following experiments. […] Representative DsRed and thioflavin S fluorescent images of ∆K280 TauRD‐DsRed‐expressing cells untreated or treated with congo red (10 µM), licochalcone A (1 µM), or LM‐031 (1 µM) are shown in Figure S2d.
DsRed fluorescence of proaggregant ∆K280 TauRD-DsRed 293 cells was evaluated to reflect Tau aggregation. On day 1, cells were seeded on a 96-well plate in a density of 0.8 × 10^4 cells/well. […] On the fifth day, the cells were stained with Hoechst 33342 (0.1 µg/ml; Sigma-Aldrich) for 30 min to identify total cell number; DsRed fluorescence images (543 nm excitation and 593 nm emission) were automatically captured by using the ImageXpressMICRO high-content imaging system (Molecular Devices, Sunnyvale, CA, USA) and analyzed using MetaXpress image acquisition and analysis software (Molecular Devices). In addition, the cells were fixed with paraformaldehyde (4% in PBS) for 15 minutes, permeabilized with methanol (80%) for 6 minutes at -20°C, incubated with thioflavin S (0.02%; Sigma-Aldrich) and 4’,6-diamidino-2-phenylindole (DAPI) (0.1 μg/ml; Sigma-Aldrich) for 5 minutes, and washed in ethanol (50%). Thioflavin S images ([…]) were captured and analyzed as described. In general, 2 × 10^4 cells in each biological replicate were analyzed.
Figure S2. ΔK280 TauRD-DsRed 293 cells. (a) Experimental flow chart. Cells were plated on day 1. On day 2, the cells were treated with congo red or test compounds for 8 h; addition of doxycycline (Dox; 1 µg/ml) followed. DsRed/thioﬂavin S fluorescence, ROS, and caspase 3 activity were assessed on day 5. (b) Cytotoxicity of the test compounds against 293 cells expressing ∆K280 TauRD-DsRed for 3 days using the survived cell number (n = 3). IC50 values are listed. (c) Dose response curves of LM-031 based on DsRed fluorescence measurement. (d) Fluorescent images of ΔK280 TauRD-DsRed 293 cells untreated or treated with congo red (10 µM), licochalcone A (1 µM), or LM-031 (1 µM). Nuclei were counterstained with Hoechst 33342 (blue), and merged DsRed and Hoechst 33342 signals were shown. In addition, tau aggregation was monitored by staining with thioﬂavin S (green).

transport across PAMPA membrane (integrity marker)	Compound	IC50 at 3 days [1] [µM]	IC50 at 7 days [2] [µM]	IC50 at 3 days [3] [µM]
undetectable	Lucifer yellow			
	COc1cccc(/C=C/C(=O)c2ccc(O)cc2)c1O [LM‐026]	7.7	5.4	8.5
	Cc1ccc(/C=C/C(=O)c2c(O)c3ccccc3oc2=O)cc1 [LM‐016]	9.3	6	9.4
	COc1ccc(O)c(/C=C/C(=O)c2ccccc2)c1 [LM‐006]	6.4	4.7	5.3
